The values that follow come from patent US20240261367A1, “CYCLIC PEPTIDE IMMUNOMODULATORS” (priority 2021, published 2024).

As a reminder, the IC50 is the concentration needed to halve the response being measured.

The test has as its target T1, PD-1/PD-L1 (Homo sapiens, UniProt Q9NZQ7).
T1 construct: TVMV protease site linker (C); made in house; host or cells: HEK293T cells
Put plainly: PD-1/PD-L1 Homogenous Time-Resolved Fluorescence (HTRF) binding assay. From the text: Methods for Testing the Ability of Macrocyclic Peptides to Compete for the Binding of PD-1 to PD-L1 Using Homogenous Time-Resolved Fluorescence (HTRF) Binding Assays
The ability of the compounds of formula (I) to bind to PD-L1 was investigated using a PD-1/PD-L1 Homogenous Time-Resolved Fluorescence (HTRF) binding assay.
Homogenous Time-Resolved Fluorescence (HTRF) Binding Assay
The interaction of PD-1 and PD-L1 can be assessed using soluble, purified preparations of the extracellular domains of the two proteins. The PD-1 and PD-L1 protein extracellular domains were expressed as fusion proteins with detection tags, for PD-1, the tag was the Fc portion of Immunoglobulin (PD-1-Ig) and for PD-L1 it was the 6 histidine motif (PD-L1-His). All binding studies were performed in an HTRF assay buffer consisting of dPBS supplemented with 0.1% […] bovine serum albumin and 0.05% (v/v) Tween-20. […] HTRF detection was achieved using europium crypate-labeled anti-Ig (1 nM final) and allophycocyanin (APC) labeled anti-His (20 nM final). Antibodies were diluted in HTRF detection buffer and 5 μl was dispensed on top of the binding reaction. The reaction mixture was allowed to equilibrate for 30 minutes and the resulting signal (665 nm/620 nm ratio) was obtained using an EnVision fluorometer. Additional binding assays were established between the human proteins PD-1-Ig/PD-L2-His (20 & 5 nM, respectively) and CD80-His/PD-L1-Ig (100 & 10 nM, respectively).
Recombinant Proteins: Human PD-1 (25-167) with a C-terminal human Fc domain of immunoglobulin G (Ig) epitope tag [hPD-1 (25-167)-3S-IG] and human PD-L1 (18-239) with a C-terminal His epitope tag [hPD-L1(18-239)-TVMV-His] were expressed in HEK293T cells and purified sequentially by ProteinA affinity chromatography and size exclusion chromatography. Human PD-L2-His and CD80-His was obtained through commercial sources.
Table 1 lists the IC50 values for representative examples of this disclosure measured in the PD-1/PD-L1 Homogenous Time-Resolved Fluorescence (HTRF) binding assay.
(In TR-FRET formats the signal depends on donor and acceptor labels being close together.)

Where [1] appears, read: PD-L1-His (10 nM) pre-incubated with inhibitor 15 m, then PD-1-Ig (20 nM).

Molecules are shown by their SMILES. Starred links: 1 amine or outer side, 2 acyl side, 3 side chain; linkers in the order of their positions; H or OH if unused. Positions of bridges follow the written chain, without caps; N, C: chain ends. Non-standard residues stand in square brackets, D forms with d. Residues, ends and D or L forms follow the SMILES beside them. *: point of attachment. X2 = COC(=O)CCCCCCCCCCCCCCCCC(=O)N[C@@H](CCC(=O)NCCOCCOCCOCCOCCOCCOCCOCCOCCOCCOCCOCCn1cc(C[C@H](NC(=N)CNC(=O)[C@H](CSCC(=O)[*:1])NC(=N)[C@H](CC(C)C)N[*:2])C(=O)OC)nn1)C(=O)OC; X1 = COC(=O)CCCCCCCCCCCCCCCCC(=O)N[C@@H](CCC(=O)NCCOCCOCCOCCOCCOCCOCCOCCOCCOCCOCCOCCn1cc(C[C@H](NC(=N)CN*)C(=O)O)nn1)C(=O)O; Trp(1-CH2CO2Me) = COC(=O)Cn1cc(C[C@H](N)C(=O)O)c2ccccc21; Trp(1-CH2COOH) = N[C@@H](Cc1cn(CC(=O)O)c2ccccc12)C(=O)O; Hyp = O=C(O)[C@@H]1C[C@@H](O)CN1; NMeNle = CCCC[C@H](NC)C(=O)O; NMeA = CN[C@@H](C)C(=O)O; Dab = NCC[C@H](N)C(=O)O; Dap = NC[C@H](N)C(=O)O

T1 sequence (Q9NZQ7 18-239): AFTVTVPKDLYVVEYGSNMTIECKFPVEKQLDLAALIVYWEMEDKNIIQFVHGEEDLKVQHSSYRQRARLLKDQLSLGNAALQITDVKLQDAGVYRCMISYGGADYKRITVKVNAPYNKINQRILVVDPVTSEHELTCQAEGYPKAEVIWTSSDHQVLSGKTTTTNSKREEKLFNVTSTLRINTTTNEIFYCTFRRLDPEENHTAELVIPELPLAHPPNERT

In turn, `CCCC[C@H]1C(=O)N(C)[C@@H](CCCC)C(=O)N[C@@H](CC(C)C)C(=N)N[C@H](C(=O)NCC(=N)N[C@@H](Cc2cn(CCOCCOCCOCCOCCOCCOCCOCCOCCOCCOCCOCCNC(=O)CC[C@H](NC(=O)CCCCCCCCCCCCCCCCC(=O)OC)C(=O)OC)nn2)C(=O)OC)CSCC(=O)NCC(=O)N(C)[C@@H](C)C(=O)N[C@@H](CC(N)=O)C(=O)N2CCC[C@H]2C(=O)N[C@@H](CN)C(=O)N[C@@H](CC(C)C)C(=O)N2C[C@H](O)C[C@H]2C(=O)N[C@@H](Cc2c[nH]c3ccccc23)C(=O)N[C@@H](CCN)C(=O)N[C@@H](Cc2cn(CC(=O)OC)c3ccccc23)C(=O)N1C` [Example 1001] (G[NMeA]NP[Dap]L[Hyp]W[Dab][Trp(1-CH2CO2Me)][NMeNle][NMeNle]; linker N-C via X2) showed a 50% inhibitory concentration (IC50) under setting [1] of 7.3 nM.

Under setting [1], `CCCC[C@H]1C(=O)N(C)[C@@H](CCCC)C(=O)N[C@@H](CC(C)C)C(=O)N[C@H](C(=O)NCC(=O)N[C@@H](Cc2cn(CCOCCOCCOCCOCCOCCOCCOCCOCCOCCOCCOCCNC(=O)CC[C@H](NC(=O)CCCCCCCCCCCCCCCCC(=O)O)C(=O)O)nn2)C(=O)O)CSCC(=O)N[C@@H](Cc2ccc(O)cc2)C(=O)N(C)[C@@H](C)C(=O)N[C@@H](CC(N)=O)C(=O)N2CCC[C@H]2C(=O)N[C@@H](CNC(=O)OC(C)(C)C)C(=O)N[C@@H](CC(C)C)C(=O)N2C[C@H](O)C[C@H]2C(=O)N[C@@H](Cc2c[nH]c3ccccc23)C(=O)N[C@@H](CCNC(=O)OC(C)(C)C)C(=O)N[C@@H](Cc2cn(CC(=O)O)c3ccccc23)C(=O)N1C` [Example 1002] displayed an IC50 of 6.5 nM. Same read-out and setting: as for `CCCC[C@H]1C(=O)N(C)[C@@H](CCCC)C(=O)N[C@@H](CC(C)C)C(=O)N[C@H](C(=O)NCC(=O)N[C@@H](Cc2cn(CCOCCOCCOCCOCCOCCOCCOCCOCCOCCOCCOCCNC(=O)CC[C@H](NC(=O)CCCCCCCCCCCCCCCCC(=O)O)C(=O)O)nn2)C(=O)O)CSCC(=O)N[C@@H](Cc2ccc(O)cc2)C(=O)N(C)[C@@H](C)C(=O)N[C@@H](CC(N)=O)C(=O)N2CCC[C@H]2C(=O)N[C@@H](CNC(=O)OC(C)C)C(=O)N[C@@H](CC(C)C)C(=O)N2C[C@H](O)C[C@H]2C(=O)N[C@@H](Cc2c[nH]c3ccccc23)C(=O)N[C@@H](CCN)C(=O)N[C@@H](Cc2cn(CC(=O)O)c3ccccc23)C(=O)N1C` [Example 1003], the figure is 9.1 nM; as for `C=C(CC[C@@H]1NC(=O)[C@H](Cc2c[nH]c3ccccc23)NC(=O)[C@@H]2C[C@@H](O)CN2C(=O)[C@H](CC(C)C)NC(=O)[C@H](CNC(=O)CC[C@@H](C)[C@H]2CC[C@H]3[C@@H]4[C@H](O)C[C@@H]5C[C@H](O)CC[C@]5(C)[C@H]4C[C@H](O)[C@]23C)NC(=O)[C@@H]2CCCN2C(=O)[C@H](CC(N)=O)NC(=O)[C@H](C)N(C)C(=O)[C@H](Cc2ccc(O)cc2)NC(=O)CSC[C@@H](C(=O)NCC(=O)N[C@@H](Cc2cn(CCOCCOCCOCCOCCOCCOCCOCCOCCOCCOCCOCCNC(=O)CC[C@H](NC(=O)CCCCCCCCCCCCCCCCC(=O)O)C(=O)O)nn2)C(=O)O)NC(=O)[C@H](CC(C)C)NC(=O)[C@H](CCCC)N(C)C(=O)[C@H](CCCC)N(C)C(=O)[C@H](Cc2cn(CC(=O)O)c3ccccc23)NC1=O)CC[C@@H](C)[C@H]1CC[C@H]2[C@@H]3[C@H](O)C[C@@H]4C[C@H](O)CC[C@]4(C)[C@H]3C[C@H](O)[C@]12C` [Example 1004], 200 nM. Same read-out and setting: as for `CCCC[C@H]1C(=O)N(C)[C@@H](CCCC)C(=O)N[C@@H](CC(C)C)C(=O)N[C@H](C(=O)NCC(=O)N[C@@H](Cc2cn(CCOCCOCCOCCOCCOCCOCCOCCOCCOCCOCCOCCNC(=O)CC[C@H](NC(=O)CCCCCCCCCCCCCCCCC(=O)OCC)C(=O)OC)nn2)C(=O)O)CSCC(=O)N[C@@H](Cc2ccc(O)cc2)C(=O)N(C)[C@@H](C)C(=O)N[C@@H](CC(N)=O)C(=O)N2CCC[C@H]2C(=O)N[C@@H](CN)C(=O)N[C@@H](CC(C)C)C(=O)N2C[C@H](O)C[C@H]2C(=O)N[C@@H](Cc2c[nH]c3ccccc23)C(=O)N[C@@H](CCN)C(=O)N[C@@H](Cc2cn(CC(=O)O)c3ccccc23)C(=O)N1C` [Example 1005], the figure is 12 nM. `CCCC[C@H]1C(=O)N(C)[C@@H](CCCC)C(=O)N[C@@H](CC(C)C)C(=O)N[C@H](C(=O)NCC(=O)N[C@@H](Cc2cn(CCOCCOCCOCCOCCOCCOCCOCCOCCOCCOCCOCCNC(=O)CC[C@H](NC(=O)CCCCCCCCCCCCCCCCC(=O)O)C(=O)O)nn2)C(=O)O)CSCC(=O)N[C@@H](Cc2ccc(O)cc2)C(=O)N(C)[C@@H](C)C(=O)N[C@@H](CC(N)=O)C(=O)N2CCC[C@H]2C(=O)N[C@@H](CNC(=O)CC[C@@H](C)[C@H]2CC[C@H]3[C@@H]4[C@H](O)C[C@@H]5C[C@H](O)CC[C@]5(C)[C@H]4C[C@H](O)[C@]23C)C(=O)N[C@@H](CC(C)C)C(=O)N2C[C@H](O)C[C@H]2C(=O)N[C@@H](Cc2c[nH]c3ccccc23)C(=O)N[C@@H](CCN)C(=O)N[C@@H](Cc2cn(CC(=O)O)c3ccccc23)C(=O)N1C` [Example 1006]: the IC50 (10 min incubation) stood at 28 nM. `CCCC[C@H]1C(=O)N(C)[C@@H](CCCC)C(=O)N[C@@H](CC(C)C)C(=O)N[C@H](C(=O)NCC(=N)N[C@@H](Cc2cn(CCOCCOCCOCCOCCOCCOCCOCCOCCOCCOCCOCCNC(=O)CC[C@H](NC(=O)CCCCCCCCCCCCCCCCC(=O)OC)C(=O)O)nn2)C(=O)O)CSCC(=O)N[C@@H](Cc2ccc(O)cc2)C(=O)N(C)[C@@H](C)C(=O)N[C@@H](CC(N)=O)C(=O)N2CCC[C@H]2C(=O)N[C@@H](CN)C(=O)N[C@@H](CC(C)C)C(=O)N2C[C@H](O)C[C@H]2C(=O)N[C@@H](Cc2c[nH]c3ccccc23)C(=O)N[C@@H](CCN)C(=O)N[C@@H](Cc2cn(CC(=O)O)c3ccccc23)C(=O)N1C` [Example 1007] ({CH2CO}-Y[NMeA]NP[Dap]L[Hyp]W[Dab][Trp(1-CH2COOH)][NMeNle][NMeNle]LC-X1; thioether N-14): the IC50 under setting [1] came out at 21 nM. Same read-out and setting: as for `CCCC[C@H]1C(=O)N(C)[C@@H](CCCC)C(=O)N[C@@H](CC(C)C)C(=O)N[C@H](C(=O)NCC(=O)N[C@@H](Cc2cn(CCOCCOCCOCCOCCOCCOCCOCCOCCOCCOCCOCCNC(=O)CC[C@H](NC(=O)CCCCCCCCCCCCCCCCC(=O)O)C(=O)O)nn2)C(=O)O)CSCC(=O)N[C@@H](Cc2ccc(O)cc2)C(=O)N(C)[C@@H](C)C(=O)N[C@@H](CC(N)=O)C(=O)N2CCC[C@H]2C(=O)N[C@@H](CNC(=O)OCC)C(=O)N[C@@H](CC(C)C)C(=O)N2C[C@H](O)C[C@H]2C(=O)N[C@@H](Cc2c[nH]c3ccccc23)C(=O)N[C@@H](CCNC(=O)OCC)C(=O)N[C@@H](CC2=CC(CC(=O)O)c3ccccc32)C(=O)N1C` (some centres unmarked) [Example 1008], the figure is 5.9 nM; as for `CCCC[C@H]1C(=O)N(C)[C@@H](CCCC)C(=O)N[C@@H](CC(C)C)C(=O)N[C@H](C(=O)NCC(=O)N[C@@H](Cc2cn(CCOCCOCCOCCOCCOCCOCCOCCOCCOCCOCCOCCNC(=O)CC[C@H](NC(=O)CCCCCCCCCCCCCCCCC(=O)O)C(=O)O)nn2)C(=O)O)CSCC(=O)N[C@@H](Cc2ccc(O)cc2)C(=O)N(C)[C@@H](C)C(=O)N[C@@H](CC(N)=O)C(=O)N2CCC[C@H]2C(=O)N[C@@H](CNC(=O)OCC)C(=O)N[C@@H](CC(C)C)C(=O)N2C[C@H](O)C[C@H]2C(=O)N[C@@H](Cc2c[nH]c3ccccc23)C(=O)N[C@@H](CCN)C(=O)N[C@@H](CC2=CC(CC(=O)O)c3ccccc32)C(=O)N1C` (some centres unmarked) [Example 1009], 12 nM; as for `C#CCOC(=O)NC[C@@H]1NC(=O)[C@@H]2CCCN2C(=O)[C@H](CC(N)=O)NC(=O)[C@H](C)N(C)C(=O)[C@H](Cc2ccc(O)cc2)NC(=O)CSC[C@@H](C(=O)NCC(=O)N[C@@H](Cc2cn(CCOCCOCCOCCOCCOCCOCCOCCOCCOCCOCCOCCNC(=O)CC[C@H](NC(=O)CCCCCCCCCCCCCCCCC(=O)O)C(=O)O)nn2)C(=O)O)NC(=O)[C@H](CC(C)C)NC(=O)[C@H](CCCC)N(C)C(=O)[C@H](CCCC)N(C)C(=O)[C@H](CC2=CC(CC(=O)O)c3ccccc32)NC(=O)[C@H](CCN)NC(=O)[C@H](Cc2c[nH]c3ccccc23)NC(=O)[C@@H]2C[C@@H](O)CN2C(=O)[C@H](CC(C)C)NC1=O` (some centres unmarked) [Example 1010], 10 nM. Same read-out and setting: the figure for `CCCC[C@H]1C(=O)N(C)[C@@H](CCCC)C(=O)N[C@@H](CC(C)C)C(=O)N[C@H](C(=O)NCC(=O)N[C@@H](Cc2cn(CCOCCOCCOCCOCCOCCOCCOCCOCCOCCOCCOCCNC(=O)CC[C@H](NC(=O)CCCCCCCCCCCCCCCCC(=O)OC)C(=O)OC)nn2)C(=O)O)CSCC(=O)N[C@@H](Cc2ccc(O)cc2)C(=O)N(C)[C@@H](C)C(=O)N[C@@H](CC(N)=O)C(=O)N2CCC[C@H]2C(=O)N[C@@H](CN)C(=O)N[C@@H](CC(C)C)C(=O)N2C[C@H](O)C[C@H]2C(=O)N[C@@H](Cc2c[nH]c3ccccc23)C(=O)N[C@@H](CCN)C(=O)N[C@@H](CC2=CC(CC(=O)O)c3ccccc32)C(=O)N1C` (some centres unmarked) [Example 1011] is 11 nM.
